# Experimental data as given in US20250326771A1, “PIPERAZINE DERIVATIVES USEFUL IN HIV THERAPY” (VIIV HEALTHCARE COMPANY, priority 2022, published 2025).
# pIC50: −log10 of the molar value. Where two headings read alike, the source gives them in different places.
# Legend:
# [1] = biological target: cIAP1-BIR3 (Homo sapiens (Human), UniProt Q13490); test: BIR binding assay (FRET competition), cIAP1 BIR3; settings: for cIAP1 BIR3 vs BIR2 separation window: fold separation (FS) for cIAP1
# How it was run: (§1)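 615/665 nm FRET ratio. Compound, His-domain and 200 nM AF647-SMAC peptide incubated 60 min, then 2 nM Eu-W1024 for 30 min. Domains: cIAP1-BIR3 50 nM; XIAP-BIR3 100 nM; cIAP1-BIR2, cIAP2-BIR2 325 nM each. 15-pt 3-fold series; variable-slope IC50.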
# [2] = biological target: XIAP-BIR2 (Homo sapiens (Human), UniProt P98170); test: BIR binding assay (FRET competition), XIAP BIR2; settings: read-out: XIAP BIR2 (pIC50) (converted)
# How it was run: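 Competitive TR-FRET used His-tagged XIAP-BIR2 (200 nM) and 200 nM AlexaFluor647-labelled AVPIAQKSE SMAC peptide in HEPES buffer pH 7.4 with CHAPS, glycerol and DTT, incubated 60 min before 30 min with 2 nM Eu-W1024. The 615/665 nm ratio from a 15-point, 3-fold series was fit with a four-parameter model for IC50/pIC50.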
# [3] = biological target: cIAP2-BIR2 (Homo sapiens (Human), UniProt Q13489); test: BIR binding assay (FRET competition), cIAP2 BIR2
# How it was run: as §1
# [4] = biological target: cIAP1-BIR2 (Homo sapiens (Human), UniProt Q13490); test: BIR binding assay (FRET competition), cIAP1 BIR2
# How it was run: as §1
# [5] = test system: Jurkat HIV-luciferase clones; test: Jurkat latency reversal assay; format: cell-based; settings: Homo sapiens, 48 h; Jurkat latency reversal assay potency; read-out: Jurkat pEC50 (converted)
# How it was run: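 A 1:1:1 mix of three Jurkat clones (C16, 115, N6) carrying integrated luciferase-expressing HIV proviruses, 5,000 cells/well, was exposed to 3-fold, 14-point compound titrations from 10 μM at 0.5% DMSO for 48 h at 37° C. Steady-Glo luminescence was fitted by four-parameter logistic regression to give EC50 and maximal percent activation relative to vehicle.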
# [6] = biological target: XIAP-BIR3 (Homo sapiens (Human), UniProt P98170); test: BIR binding assay (FRET competition), XIAP BIR3; settings: for XIAP BIR3 vs BIR2 separation window: fold separation (FS) for XIAP
# How it was run: as §1
# [7] = biological target: cIAP2-BIR3 (Homo sapiens (Human), UniProt Q13489); test: BIR binding assay (FRET competition), cIAP2 BIR3; settings: for cIAP2 BIR3 vs BIR2 separation window: fold separation (FS) for cIAP2
# Chain of cIAP2-BIR3 (Q13489 238-349): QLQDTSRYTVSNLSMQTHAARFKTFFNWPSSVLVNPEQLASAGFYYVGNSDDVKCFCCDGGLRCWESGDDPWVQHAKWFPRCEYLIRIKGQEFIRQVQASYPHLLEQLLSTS
# Chain of cIAP1-BIR2 (Q13490 173-257): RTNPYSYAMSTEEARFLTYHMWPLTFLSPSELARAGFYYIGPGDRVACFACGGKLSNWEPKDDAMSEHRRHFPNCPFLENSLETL
# Chain of cIAP2-BIR2 (Q13489 158-242): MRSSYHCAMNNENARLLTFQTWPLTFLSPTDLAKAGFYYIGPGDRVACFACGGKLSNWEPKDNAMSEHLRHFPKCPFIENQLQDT
# Chain of XIAP-BIR3 (P98170 241-356): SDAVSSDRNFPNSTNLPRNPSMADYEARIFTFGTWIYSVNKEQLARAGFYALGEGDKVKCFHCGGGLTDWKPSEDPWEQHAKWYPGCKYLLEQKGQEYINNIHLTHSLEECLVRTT
# Chain of XIAP-BIR2 (P98170 124-240): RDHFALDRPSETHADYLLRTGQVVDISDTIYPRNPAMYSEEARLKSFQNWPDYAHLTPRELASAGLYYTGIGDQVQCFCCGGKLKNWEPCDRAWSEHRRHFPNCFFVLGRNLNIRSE
# Chain of cIAP1-BIR3 (Q13490 253-363): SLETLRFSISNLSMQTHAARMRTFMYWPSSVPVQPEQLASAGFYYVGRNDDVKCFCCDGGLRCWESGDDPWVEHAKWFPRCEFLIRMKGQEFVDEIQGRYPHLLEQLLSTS
SMILES,pIC50 [1],cIAP1 BIR3 vs BIR2 separation window [1],IC50 ([2]; FRET competition binding),pIC50 [3],pIC50 [4],EC50 [5],pIC50 [6],XIAP BIR3 vs BIR2 separation window [6],pIC50 [7],cIAP2 BIR3 vs BIR2 separation window [7],IC50 ([2]; FRET competition)
"C[C@@H]1CN(CC(=O)N2CC(C)(C)c3[nH]c(=O)c(Cc4ccc(F)cc4)cc32)[C@@H](CN2CCN(C(=O)COCCOCC(=O)N3CCN(C[C@H]4CN[C@H](C)CN4CC(=O)N4CC(C)(C)c5[nH]c(=O)c(Cc6ccc(F)cc6)cc54)[C@H](C)C3)C[C@H]2C)CN1 [Example 5, 1,1′-(2,2′-((3R,3′R,6R,6′R)-(((2R,2′R)-(2,2′-(ethane-1,2-diylbis(oxy))bis(acetyl))bis(2-methylpiperazine-4,1-diyl))bis(methylene))bis(3-methylpiperazine-6,1-diyl))bis(acetyl))bis(6-(4-fluorobenzyl)-3,3-dimethyl-1,2,3,4-tetrahydro-5H-pyrrolo[3,2-b]pyridin-5-one)]",6.30 to 7.50,"++ (1,000>FS>100)",10000 to 51300 nM,5.50 to 6.00,5.00 to 5.50,63.1 to 316 nM,6.30 to 7.50,"++++ (FS>10,000)",7.50 to 7.80,"++ (1,000>FS>100)",
"C[C@@H]1CN(CC(=O)N2CC(C)(C)c3[nH]c(=O)c(Cc4ccc(F)cc4)cc32)[C@@H](CN2CCO[C@H](C(=O)NCCNC(=O)[C@@H]3CN(C[C@H]4CN[C@H](C)CN4CC(=O)N4CC(C)(C)c5[nH]c(=O)c(Cc6ccc(F)cc6)cc54)CCO3)C2)CN1 [Example 128, (2S,2'S)-N,N′-(ethane-1,2-diyl)bis(4-(((2R,5R)-1-(2-(6-(4-fluorobenzyl)-3,3-dimethyl-5-oxo-2,3,4,5-tetrahydro-1H-pyrrolo[3,2-b]pyridin-1-yl)-2-oxoethyl)-5-methylpiperazin-2-yl)methyl)morpholine-2-carboxamide)]",7.50 to 7.80,"+++ (10,000>FS>1,000)",10000 to 51300 nM,5.00 to 5.50,5.00 to 5.50,316 to 3310 nM,7.50 to 7.80,"++++ (FS>10,000)",7.80 to 8.10,"+++ (10,000>FS>1,000)",
"C[C@@H]1CN(CC(=O)N2CC(C)(C)c3[nH]c(=O)c(Cc4ccc(F)cc4)cc32)[C@@H](CN2CCC(CN(C)C(=O)c3cccc(C(=O)N(C)CC4CCN(C[C@H]5CN[C@H](C)CN5CC(=O)N5CC(C)(C)c6[nH]c(=O)c(Cc7ccc(F)cc7)cc65)CC4)c3)CC2)CN1 [Example 95, N^1,N^3-bis((1-(((2R,5R)-1-(2-(6-(4-fluorobenzyl)-3,3-dimethyl-5-oxo-2,3,4,5-tetrahydro-1H-pyrrolo[3,2-b]pyridin-1-yl)-2-oxoethyl)-5-methylpiperazin-2-yl)methyl)piperidin-4-yl)methyl)-N^1,N^3-dimethylisophthalamide]",6.30 to 7.50,"++ (1,000>FS>100)",10000 to 51300 nM,5.50 to 6.00,5.50 to 6.00,63.1 to 316 nM,7.80 to 8.10,"++++ (FS>10,000)",8.10 to 8.86,"+++ (10,000>FS>1,000)",
"C[C@@H]1CN(CC(=O)N2CC(C)(C)c3[nH]c(=O)c(Cc4ccc(F)cc4)cc32)[C@@H](CN2CCO[C@H](C(=O)Nc3cccc(NC(=O)[C@@H]4CN(C[C@H]5CN[C@H](C)CN5CC(=O)N5CC(C)(C)c6[nH]c(=O)c(Cc7ccc(F)cc7)cc65)CCO4)c3)C2)CN1 [Compound 140, (2S,2′S)-N,N′-(1,3-phenylene)bis(4-(((2R,5R)-1-(2-(6-(4-fluorobenzyl)-3,3-dimethyl-5-oxo-2,3,4,5-tetrahydro-1H-pyrrolo[3,2-b]pyridin-1-yl)-2-oxoethyl)-5-methylpiperazin-2-yl)methyl)morpholine-2-carboxamide)]",7.80 to 8.10,"+++ (10,000>FS>1,000)",,5.50 to 6.00,5.50 to 6.00,63.1 to 316 nM,7.50 to 7.80,"++++ (FS>10,000)",7.80 to 8.10,"+++ (10,000>FS>1,000)",10000 to 51300 nM
"C[C@@H]1CN(CC(=O)N2CC(C)(C)c3[nH]c(=O)c(Cc4ccc(F)cc4)cc32)[C@@H](CN2CCC(CC(=O)N(C)Cc3ccc(CN(C)C(=O)CC4CCN(C[C@H]5CN[C@H](C)CN5CC(=O)N5CC(C)(C)c6[nH]c(=O)c(Cc7ccc(F)cc7)cc65)CC4)cc3)CC2)CN1 [Example 106, N,N′-(1,4-phenylenebis(methylene))bis(2-(1-(((2R,5R)-1-(2-(6-(4-fluorobenzyl)-3,3-dimethyl-5-oxo-2,3,4,5-tetrahydro-1H-pyrrolo[3,2-b]pyridin-1-yl)-2-oxoethyl)-5-methylpiperazin-2-yl)methyl)piperidin-4-yl)-N-methylacetamide)]",8.10 to 8.86,"+++ (10,000>FS>1,000)",10000 to 51300 nM,5.50 to 6.00,5.50 to 6.00,12.6 to 63.1 nM,8.10 to 8.86,"++++ (FS>10,000)",8.10 to 8.86,"+++ (10,000>FS>1,000)",
"C[C@@H]1CN(CC(=O)N2CC(C)(C)c3[nH]c(=O)c(Cc4ccc(F)cc4)cc32)[C@@H](CN2CCO[C@H](C(=O)NCCCNC(=O)[C@@H]3CN(C[C@H]4CN[C@H](C)CN4CC(=O)N4CC(C)(C)c5[nH]c(=O)c(Cc6ccc(F)cc6)cc54)CCO3)C2)CN1 [Example 125, (2S,2'S)-N,N′-(Propane-1,3-diyl)bis(4-(((2R,5R)-1-(2-(6-(4-fluorobenzyl)-3,3-dimethyl-5-oxo-2,3,4,5-tetrahydro-1H-pyrrolo[3,2-b]pyridin-1-yl)-2-oxoethyl)-5-methylpiperazin-2-yl)methyl)morpholine-2-carboxamide)]",7.80 to 8.10,"+++ (10,000>FS>1,000)",10000 to 51300 nM,5.00 to 5.50,5.50 to 6.00,63.1 to 316 nM,7.50 to 7.80,"++++ (FS>10,000)",7.80 to 8.10,"+++ (10,000>FS>1,000)",
"C[C@@H]1CN(CC(=O)N2CC(C)(C)c3[nH]c(=O)c(Cc4ccc(F)cc4)cc32)[C@@H](CN2CCO[C@H](COc3ccccc3OC[C@@H]3CN(C[C@H]4CN[C@H](C)CN4CC(=O)N4CC(C)(C)c5[nH]c(=O)c(Cc6ccc(F)cc6)cc54)CCO3)C2)CN1 [Example 71, 1,1′-(2,2′-((3R,3′R,6R,6′R)-(((2S,2'S)-((1,2-phenylenebis(oxy))bis(methylene))bis(morpholine-2,4-diyl))bis(methylene))bis(3-methylpiperazine-6,1-diyl))bis(acetyl))bis(6-(4-fluorobenzyl)-3,3-dimethyl-1,2,3,4-tetrahydro-5H-pyrrolo[3,2-b]pyridin-5-one)]",7.80 to 8.10,"++ (1,000>FS>100)",10000 to 51300 nM,5.50 to 6.00,5.50 to 6.00,63.1 to 316 nM,7.50 to 7.80,"++++ (FS>10,000)",7.80 to 8.10,"+++ (10,000>FS>1,000)",
"C[C@@H]1CN(CC(=O)N2CC(C)(C)c3[nH]c(=O)c(Cc4ccc(F)cc4)cc32)[C@@H](CN2CCN(C(=O)CN(C)CC(=O)N3CCN(C[C@H]4CN[C@H](C)CN4CC(=O)N4CC(C)(C)c5[nH]c(=O)c(Cc6ccc(F)cc6)cc54)[C@H](C)C3)C[C@H]2C)CN1 [Example 15, 1,1′-(2,2′-((3R,3′R,6R,6′R)-(((2R,2′R)-(2,2′-(methylazanediyl)bis(acetyl))bis(2-methylpiperazine-4,1-diyl))bis(methylene))bis(3-methylpiperazine-6,1-diyl))bis(acetyl))bis(6-(4-fluorobenzyl)-3,3-dimethyl-1,2,3,4-tetrahydro-5H-pyrrolo[3,2-b]pyridin-5-one)]",8.10 to 8.86,,10000 to 51300 nM,6.00 to 7.65,6.00 to 7.65,63.1 to 316 nM,8.10 to 8.86,,8.10 to 8.86,,
"C[C@@H]1CN(CC(=O)N2CC(C)(C)c3[nH]c(=O)c(Cc4ccc(F)cc4)cc32)[C@@H](CN2CCO[C@H](COc3ccc(C#N)c(OC[C@@H]4CN(C[C@H]5CN[C@H](C)CN5CC(=O)N5CC(C)(C)c6[nH]c(=O)c(Cc7ccc(F)cc7)cc65)CCO4)c3)C2)CN1 [Example 77, 2,4-bis(((S)-4-(((2R,5R)-1-(2-(6-(4-fluorobenzyl)-3,3-dimethyl-5-oxo-2,3,4,5-tetrahydro-1H-pyrrolo[3,2-b]pyridin-1-yl)-2-oxoethyl)-5-methylpiperazin-2-yl)methyl)morpholin-2-yl)methoxy)benzonitrile]",8.10 to 8.86,"+++ (10,000>FS>1,000)",10000 to 51300 nM,5.50 to 6.00,5.50 to 6.00,12.6 to 63.1 nM,7.50 to 7.80,"++++ (FS>10,000)",8.10 to 8.86,"+++ (10,000>FS>1,000)",
